Reference: patent US12172986B2, “Splicing modulator antibody-drug conjugates and methods of use” (EISAI R&D MANAGEMENT CO., LTD., priority 2018, dated 2024)

Experiments:
[1] = tested on: FBXW5 (mature mRNA transcript); experiment: In vivo PD RT-qPCR in NCI-N87 tumors, FBXW5; parameters: species or system mouse; conditions: 10 mg/kg IV single dose
[2] = tested on: TAOK1 (neojunction transcript); experiment: In vivo PD RT-qPCR in NCI-N87 tumors, TAOK1; parameters: species or system mouse; conditions: 10 mg/kg IV single dose
HCC1954 cells = experiment: Cell viability CellTiter-Glo, HCC1954; assay type: cell-based; conditions: unconjugated payload of the ADC
Caco-2 cells = experiment: Caco-2 permeability of ADC payload; assay type: in vitro ADME
Protocol: (§1) Integrity of cell monolayer was confirmed by TEER (transepithelial electrical resistance) and Lucifer yellow. Payloads were spiked in duplicate at 10 μM, separately, on both sides of the cell monolayer. Permeability rates from the apical to basolateral (A-B) direction and the basolateral to apical (B-A) direction were determined by sampling aliquots from both chambers immediately after treatment (t=0) and following incubation for 2 hours. Samples were protein precipitated with organic solvent containing internal standard and analyzed by LC-MS/MS (SCIEX; API 5500). The area ratio responses of payload/internal standard over time in both directions were used to generate permeability (cm/see) values. Efflux ratio was calculated by dividing B-A/A-B. Control compounds for low and high permeability and efflux behaved as expected.

[3] = Caco-2 permeability of ADC payload; assay type: in vitro ADME; conditions: human, Caco-2; payload, B-A/A-B; read-out: Eflux ratio
Protocol: as §1

N87 cells = experiment: Cell viability CellTiter-Glo, N87; assay type: cell-based, human; conditions: unconjugated payload of the ADC
THP1.1 = experiment: Payload cell potency and lethality CTGlo 72 h, THP1.1; assay type: cell-based; conditions: payload
SF3b complex = biological target: T1, SF3b complex (Homo sapiens, UniProt O75533+Q7RTV0); experiment: SF3B1 binding / scintillation proximity assay (SPA); conditions: payload of the ADC; read-out: SPA-AT S GMean IC50 (nM) SF381 (WT) HELA.2
T1 construct: The beads were suspended and added to the prepared nuclear extracts

Ad2.1 pre-mRNA splicing = experiment: In vitro splicing (IVS) RT-qPCR, Ad2.1 pre-mRNA, HeLa nuclear extract; assay type: biochemical; conditions: payload of the ADC; read-out: qPCR-IVS-AT S Gmean IC50 (nm) Ad2.1 HELA.2
MCF7 cells = experiment: Cell viability CellTiter-Glo, HER2-negative MCF7; conditions: unconjugated payload of the ADC
MOLP8 cells = experiment: Cell viability, CD138-expressing MOLP8; assay type: cell-based; conditions: unconjugated payload of the ADC
[4] = Chemical stability of ADC payload, pH 5.5 buffer; conditions: Table 26; corresponding payload, pH 5.5, 37C, t1/2
Ad2.2 pre-mRNA splicing = experiment: In vitro splicing (IVS) RT-qPCR, Ad2.2 pre-mRNA, HeLa nuclear extract; assay type: biochemical; conditions: payload of the ADC; read-out: qPCR-IVS-AT S GMean IC50 (nM) Ad2.2 HELA.2
Protocol: To evaluate payload activity in a cell-free system, an in vitro splicing assay was performed. The payloads were incubated with nuclear extracts and pre-mRNA substrate minigenes.
HeLa nuclear extract preparation: HeLa S3 cell pellets were resuspended in hypotonic buffer (10 mM HEPES pH 7.9, 1.5 mM MgCl2, 10 mM KCl, 0.2 mM PMSF, 0.5 mM DTT) and the suspension was brought up to a total of 5 packed cell volume (PCV). After centrifugation, the supernatant was discarded, and the cells were brought up to 3 PCV with hypotonic buffer and incubated on ice for 10 min. Cells were lysed using a dounce homogenizer and then centrifuged. […]. The nuclei were gently mixed for 30 min before centrifuging. The supernatant (nuclear extract) was then dialyzed into storage buffer (20 mM HEPES pH 7.9, 100 mM KCl, 0.2 mM EDTA, 20% glycerol, 0.2 mM PMSF, 0.5 mM DTT). Protein concentration was determined using NanoDrop 8000 UV-Vis spectrophotometer (ThermoFisher Scientific).
IVS: All Ad2-derived sequences (Pellizzoni et al. (1998) Cell 95(5):615-24) were cloned into pcDNA3.1(+) vector (Promega) using 5′ EcoRI and 3′ Xbal restriction sites. The plasmids were linearized using Xbal and used as DNA templates in in vitro transcription reactions. The FtzΔi intron-less plasmid (Luo and Reed (1999) 96(26):14937-42) was linearized using EcoRI. All RNAs were in vitro transcribed and then purified using MEGAScript T7 (Invitrogen) and MegaClear (Invitrogen) kits, respectively. For splicing reactions using Ad2 variant pre-mRNAs, 1 μL reactions were prepared using 8 μg nuclear extracts prepared from HeLa S3, 2 ng pre-mRNA, 0.2 ng FTZΔi, and varying concentrations of compounds or DMSO. After a 15 min pre-incubation at 30° C., 1 μL splicing activation buffer (0.5 mM ATP, 20 mM creatine phosphate, 1.6 mM MgCl2) was added, and the reactions were incubated for 90 min at 30° C. The reactions were then quenched with 13 μL DMSO, and 25 nL was used for RT-qPCR. RT-qPCR reactions were prepared using TaqMan RNA-to-CT 1-step kit (Life Technologies), RNA from splicing reactions, Ad2 (forward: […]; reverse: […]; probe: […]) and Ftz (forward: […]; reverse: […]; probe: […]) mRNA primer-probe sets. Prism 7 (Graphpad) was used for non-linear regression curve fitting of the formed spliced product and normalized to the control (DMSO) sample. […] In the presence of payload, a decrease in the amount of spliced product was observed.

Structure (SMILES)	FBXW5 mature mRNA transcript in tumors [1]	TAOK1 neojunction transcript in tumors [2]	Payload LD50 (HCC1954 cells) [nM]	Payload Rmin (%) (HCC1954 cells)	Permeability Caco-2 A-B (10e-6 cm/s) (Caco-2 cells; Table 26, corresponding payload, A-B)	permeability (in words) (Caco-2 cells; payload)	efflux ratio at 2 h, 10 μM [3]	Payload LD50 (N87 cells) [nM]	CTGlo-AT S GMean LD50 (nM) 72 h THP1.1 (THP1.1) [nM]	IC50 (SF3b complex) [nM]	IC50 (Ad2.1 pre-mRNA splicing) [µM]	Payload LD50 (MCF7 cells) [nM]	Payload Rmin (%) (MCF7 cells)	LD50 (nM) (payload) (MOLP8 cells)	Rmin (%) (payload) (MOLP8 cells)	pH 5.5 Stability (t1/2, 37C) [4]	IC50 (Ad2.2 pre-mRNA splicing) [nM]
CC[C@H](O)[C@@H](C)C1OC1C[C@@](C)(O)/C=C/C=C(\C)[C@H]1OC(=O)C[C@H](O)CC[C@@](C)(OC)[C@@H](OC(=O)N2CCN(CCN3C(=O)C=CC3=O)CC2)/C=C/[C@@H]1C (stereo in doubt) [ADL14-D1, (2S,3S,6S,7R,10R,E)-10-hydroxy-2-((R,2E,4E)-6-hydroxy-7-((2S,3S)-3-((2R,3S)-3-hydroxypentan-2-yl)oxiran-2-yl)-6-methylhepta-2,4-dien-2-yl)-7-methoxy-3,7-dimethyl-12-oxooxacyclododec-4-en-6-yl 4-(2-(2,5-dioxo-2,5-dihydro-1 H-pyrrol-1-yl)ethyl)piperazine-1-carboxylate]	did not exhibit statistically significant changes	did not exhibit statistically significant changes															
CC[C@H](O)[C@@H](C)[C@H]1O[C@@H]1C[C@@](C)(O)/C=C/C=C(\C)[C@H]1OC(=O)C[C@H](O)CC[C@@](C)(OC)[C@@H](OC(=O)N2CCN(CCCC(=O)O)CC2)/C=C/[C@@H]1C [D25]			>200	26.882	0.14 10e-6 cm/s	poorly permeable	2.55	>200	2076.811	14.6	0.244	>200	65.639	>400	5.94	3.4	50.9
